Measured values from patent US9845512B2, “Screening assay employing Dex and GDF8” (RIGEL PHARMACEUTICALS, INC., priority 2010, dated 2017).

Tested on: endogenous MuRF1
Experiment: Endogenous MuRF1 expression in HepG2 cells by Taqman RT-PCR
Assay type: cell-based, human
Procedure: Cultured HepG2 cells were exposed to 1 μM dexamethasone, 10 μM dexamethasone, 100 ng/ml GDF8, 100 ng/ml TGFβ1, and 10 μM dexamethasone+100 ng/ml GDF8, and expression of endogenous MuRF1 was evaluated by RT-PCR using Taqman RT-PCR assay. […] 10 μM dexamethasone induced expression of endogenous MuRF1 2.5× over the no treatment control, and 100 ng/ml GDF8 induced expression of endogenous MuRF1 1.8× over the no treatment control.
MuRF1 induction is observable at four hours of treatment, as compared to controls.

Row | Compound | induction of endogenous MuRF1 expression over the no treatment control (10 μM dexamethasone alone) [×] | induction of endogenous MuRF1 expression over the no treatment control (100 ng/ml GDF8 alone) [×]
1 | C[C@@H]1C[C@H]2[C@@H]3CCC4=CC(=O)C=C[C@]4(C)[C@@]3(F)[C@@H](O)C[C@]2(C)[C@@]1(O)C(=O)CO [dexamethasone] | 2.5 | –
2 | GDF8: secreted TGFβ protein family member that inhibits muscle differentiation and growth; ligand for the myostatin receptor | – | 1.8
